Experimental data reported in patent US9210928B2, “Plant development control composition” (Syngenta Crop Protection, LLC, priority 2008, dated 2015).
Entries after “also recorded” stand apart in the source; their conditions may differ.

Key:
LeCCD1a = assay: In vivo enzyme assay in β-carotene-producing E. coli expressing LeCCD1a; assay type: cell-based, Solanum lycopersicum; conditions: 100 μM inhibitor, 16 hours; FIG. 4
Excerpt: In vivo enzyme assays in E. coli—The genes of interest (supplemental Table S1) were cloned into the vector pET30c (Novagen) fused directly to the initial ATG codon with no tag, or into pGEX-4T such that the gene was fused to an N-terminal GST tag. All genes were full length except AtCCD7, which had the chloroplast signal sequence removed (supplemental methods). […] Therefore, this construct was used in subsequent assays. The plasmids were transferred to the E. coli expression strain BL21(DE3), harbouring pAC-BETA (38), and therefore producing β-carotene.
For each inhibitor assay, 2.5 ml LB media with the appropriate antibiotics (25 μg ml^−1 chloramphenicol and 50 μg ml^−1 kanamycin or 100 μg ml^−1 ampicillin) and 2.5 μM IPTG, was prepared. Inhibitors (0.1 M in 100% ethanol) were added to the media to a final concentration of 100 μM. The media was then inoculated with 0.25 ml of overnight culture (grown at 37° C. with the appropriate antibiotics) and incubated with shaking (200 rpm) at 28° C. for 16 hours. One ml of culture was harvested by microcentrifugation and resuspended thoroughly in 1 ml ethanol containing 0.2% Triton X-100. After vortexing, the extract was incubated at room temperature in the dark for 3 hours, again vortexed and then spun in a microcentrifuge for 5 min at 13000 rpm. The supernatant was removed and the O.D.453-O.D.550 was measured. The amount of β-carotene was calculated using a standard curve generated from a dilution series of β-carotene (Sigma) in ethanol with 0.2% Triton X-100; the absolute levels of β-carotene are shown in FIG. 8. The relative inhibition was calculated by the equation: (Ci−Cc)/(C1−Cc)×100, where Ci is the carotenoid level with inhibitor and CCD present, Cc is the level with CCD but without the inhibitor and C1 is the level in a strain where lacZ is expressed instead of the CCD, and no inhibitor is present. Thus the increase in β-carotene due to inhibition of the CCD […] was expressed relative to the maximum possible β-carotene content when CCD is absent (C1−Cc).
In vivo activity of inhibitors applied to E. coli strains expressing CCDs—Coloured E. coli strains that produce various carotenoids can be constructed by expression of enzymes for carotenoid synthesis (26). Upon co-expression of the appropriate CCD, the bacteria lose their colour due to cleavage of the carotenoids to colourless products (4,6,27). This technique was employed here to further explore the specificity of inhibitors, and to test their activity in vivo. The level of carotenoid in each CCD-expressing strain was compared to the level of the carotenoid in a control strain producing β-carotene but lacking any CCD gene. The difference in the carotenoid levels gave a measure of CCD activity, and inhibition of this activity was measured by addition of inhibitors to the growing medium.
The inhibitors were tested against four β-carotene-producing E. coli strains (supplemental Table S1). Three of the strains expressed highly divergent CCDs that cleave at the 9,10 position: AtCCD7 from Arabidopsis (21) and MmBCO2 from mouse (6) which both cleave at a single site (9,10 or 9′,10′ but not both), and the tomato enzyme LeCCD1a (44) which cleaves at both sites in the same substrate molecule (9,10/9′,10′ activity). The fourth strain expressed another mouse CCD, MmBCO1 (47), which cleaves centrally at 15,15′. […]

LeNCED1 = target: T1, LeNCED1 (Solanum lycopersicum, UniProt O24023); assay: In vitro NCED enzyme assay (recombinant LeNCED1 cell-free extract, HPLC, 9′-cis-neoxanthin substrate); assay type: biochemical, tomato
T1 construct: made in house; host or cells: E. coli Rosetta (DE3); crude cell-free extract
T1 sequence (O24023 17-605): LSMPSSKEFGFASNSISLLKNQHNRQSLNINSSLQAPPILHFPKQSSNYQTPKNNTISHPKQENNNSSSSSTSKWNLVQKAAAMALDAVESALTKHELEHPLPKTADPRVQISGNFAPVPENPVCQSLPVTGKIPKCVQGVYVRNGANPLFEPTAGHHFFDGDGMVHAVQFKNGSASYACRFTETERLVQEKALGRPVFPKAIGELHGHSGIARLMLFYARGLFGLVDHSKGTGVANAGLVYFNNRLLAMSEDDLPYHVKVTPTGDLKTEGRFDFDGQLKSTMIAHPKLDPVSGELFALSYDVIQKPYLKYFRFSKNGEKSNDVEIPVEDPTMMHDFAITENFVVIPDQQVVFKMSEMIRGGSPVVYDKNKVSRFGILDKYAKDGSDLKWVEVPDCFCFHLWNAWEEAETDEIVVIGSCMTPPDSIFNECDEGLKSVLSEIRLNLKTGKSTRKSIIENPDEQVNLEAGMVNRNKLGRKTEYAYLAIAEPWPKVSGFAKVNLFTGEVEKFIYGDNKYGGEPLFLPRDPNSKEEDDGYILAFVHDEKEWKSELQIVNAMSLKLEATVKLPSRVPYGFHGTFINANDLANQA
Protocol: In vitro NCED enzyme assay—We over-expressed LeNCED1 in E. coli, as an N-terminal His6-fusion protein (supplemental methods). Cell-free extract containing recombinant LeNCED1 was prepared in 100 mM bis-tris buffer (pH 6.7). 15 μl extract was pre-activated by addition of iron(II) sulphate (20 mM, 1 μl) and ascorbic acid (20 mM, 1 μl) on ice for 2 min, prior to use. This aliquot of enzyme was then added to an assay (150 μl total volume) containing 100 mM bis-tris buffer (pH 6.7), 0.05% v/v Triton X-100, 1.0 mg/ml catalase, and 3 μg 9′-cis-neoxanthin. The 9′-cis-neoxanthin substrate was prepared as described in supplemental methods. The enzyme assay was incubated for 15 min in the dark at 20° C. Water (700 μl) was then added, and the products extracted with ethyl acetate (3×1 ml). The organic solvent was removed at reduced pressure, the residue was dissolved in methanol (200 μl), and then 100 μl was injected onto a Phenomenex C18 reverse phase HPLC column, and a gradient of 5-10% methanol in acetonitrile/0.05% triethylamine was applied at 0.5 ml/min over 20 min, detecting at 440 nm. NCED inhibition assays contained 1-100 μM inhibitor; inhibition was calculated from the product formation after 15 min, compared to a control assay with no inhibitor present.
For the production of cell-free extracts of LeCCD1a and LeNCED1, cultures were grown to an OD of 0.6 at 37° C., then isopropyl β-D-1-thiogalactopyranoside (IPTG) was added to 0.2 mM and the cultures grown overnight at 20° C. The cells (200 ml cultures) were harvested by centrifugation (5000 rpm, 10 min) and the pellet re-suspended in 4 ml PBS, 0.1% Triton-X 100. Lysozyme was added to a final concentration of 25 μg ml^−1 and the solution incubated at room temperature for 15 min before sonication (3×30 s at 18Ω) on ice. The lysate was then centrifuged (13000 rpm, 15 min, 4° C.) and the supernatant used for the assay.
Specificity of inhibition in vitro for tomato genes LeNCED1 and LeCCD1a—In order to screen the inhibitors against enzymes which cleave carotenoids at the 9,10 position, we used the recombinant tomato LeCCD1a protein (44), because this type of enzyme can be studied using an in vitro colourimetric assay with β-apo-8′-carotenal as substrate (37). To establish the specificity of the inhibitors, they were also tested against the tomato LeNCED1 recombinant protein which cleaves 9-cis carotenoids at the 11,12 position (45). For this enzyme, the cleavage reaction was monitored by C18 reverse phase HPLC, using 9′-cis-neoxanthin as substrate.

Row | SMILES | relative inhibition of LeCCD1a in E. coli (in words) (LeCCD1a) | inhibition of LeNCED1 in vitro (in words) (LeNCED1) | LeNCED1 (11,12) Inhibition @ 100 μM (%) (LeNCED1; 100 μM inhibitor, E. coli cell extract with recombinant CCD)
1 | COc1ccc(C(=O)N(O)Cc2ccccc2)cc1 [Compound F1, N-benzyl-4-methoxybenzoyl hydroxamic acid] | good activity against LeCCD1a; also recorded: high inhibitory activity | little or no inhibition of LeNCED1; also recorded: no inhibition of LeNCED 1 was detected | 
2 | COc1ccc(C(=O)N(O)Cc2ccc(F)cc2)cc1 [Compound F2, N-(4-fluorobenzyl)-4-methoxybenzoyl hydroxamic acid] | good activity against LeCCD1a; also recorded: high inhibitory activity | little or no inhibition of LeNCED1 | 
3 | COc1ccc(C(=O)N(O)Cc2ccccc2)cc1OC [Compound F3, N-benzyl-3,4-dimethoxybenzoyl hydroxamic acid] | virtually none |  | 2
